Data: PMC7956625, “Optimization and Anti-Cancer Properties of Fluoromethylketones as Covalent Inhibitors for Ubiquitin C-Terminal Hydrolase L1” (Molecules, 2021)
Residue numbers refer to the chain shown, from its start. Where a SMILES comes first, the peptide text is derived from it. The star is where a group is joined. Cbz = O=C(OCc1ccccc1)*; CH2F = FC*

Columns and labels:
UCHL5 = biological target: T1, UCHL5 (Homo sapiens, UniProt Q9Y5K5); design: method as in PMID 22617491; conditions: concentrations up to 400 µM; cited from earlier work
T1 sequence (Q9Y5K5 1-245 limits assumed): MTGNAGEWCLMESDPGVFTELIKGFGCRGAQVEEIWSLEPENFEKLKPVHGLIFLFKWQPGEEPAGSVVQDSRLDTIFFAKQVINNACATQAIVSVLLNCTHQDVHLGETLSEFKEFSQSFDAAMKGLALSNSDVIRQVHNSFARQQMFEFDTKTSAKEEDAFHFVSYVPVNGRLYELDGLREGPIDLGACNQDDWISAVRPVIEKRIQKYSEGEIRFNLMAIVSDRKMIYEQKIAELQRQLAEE

UCHL3 = biological target: T2, UCHL3 (Homo sapiens, UniProt P15374); design: His (N); made in house; method as in PMID 22617491; conditions: concentrations up to 400 µM; cited from earlier work
T2 sequence (P15374 1-230): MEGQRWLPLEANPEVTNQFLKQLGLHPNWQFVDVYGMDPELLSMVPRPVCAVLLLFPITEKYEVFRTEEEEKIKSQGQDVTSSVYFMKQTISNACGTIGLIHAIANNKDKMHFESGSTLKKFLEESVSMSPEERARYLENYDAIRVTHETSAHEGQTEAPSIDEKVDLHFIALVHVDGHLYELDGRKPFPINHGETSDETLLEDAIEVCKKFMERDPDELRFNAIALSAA

UCHL1 C90A = biological target: T3, UCHL1 C90A (Homo sapiens, UniProt P09936, C90A); assay: Mass spectrometry analysis of 34 adducts on UCHL1; format: binding
T3 construct: His (N); made in house
T3 sequence (P09936 1-223 C90A): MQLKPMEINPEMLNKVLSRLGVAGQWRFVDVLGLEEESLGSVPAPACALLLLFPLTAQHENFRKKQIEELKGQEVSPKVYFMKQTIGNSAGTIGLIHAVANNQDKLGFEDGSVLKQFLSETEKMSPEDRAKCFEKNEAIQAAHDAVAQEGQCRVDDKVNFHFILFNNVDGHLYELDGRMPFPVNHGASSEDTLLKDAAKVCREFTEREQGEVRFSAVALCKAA
Method: (§1) A common shortcoming to covalent inhibitors is that the reactive electrophilic groups may partake in non-specific labeling of off-target cysteines. To investigate if alternative cysteines are affected on UCHL1 we used analog 34 to confirm that the fluoromethylketone derivatives only conjugate Cys90. […] Additionally, samples were analyzed by mass spectrometry to increase sensitivity for detection of any non-Cys90 adducts. […]
(§2) Solutions containing 10 µM recombinant UCHL1^WT or UCHL1^C90A (from pET15b) (49 µL) was incubated with either 10 µM or 20 µM inhibitor for 3 h at room temperature in PBS starting block buffer (Thermo Scientific # 37538). To quench reaction, chilled acetone was added to the sample to achieve an overall 80% acetone solution. After overnight storage at −20 °C, suspension was centrifuged at 14,000× g at 4 °C for 15 min. Supernatant was discarded, and pellet was dried by vacuum centrifugation for 1 h. Pellet was reconstituted in 50/50 water/acetonitrile with 0.1% formic acid. 25 pmol per sample was analyzed by LC/MS (Agilent 1260 Infinity II with a ZORBAX Rapid Resolution High Definition 300Å Stable Bond C3, 2.1 × 100 mm, 1.8 µm column) attached to an Agilent 6129 quadrupole mass spectrometer in positive ion mode.
(§3) The column was held at 45 °C. Mobile solution A was 0.1% formic acid in water, and mobile phase B was 0.1% formic acid in acetonitrile. The gradient used was hold at 5% B for 5 min, increase linearly to […] for 10, and then hold at 95% B for 5 min. The mass data were collected at a range of 500–1000 m/z.
(§4) Raw data were processed using MestReNova. For all samples, the deconvoluted mass was calculated with a charged state range from 27 to 36, m/z range of 670–900 Da, and deconvoluted mass range from 25,000–26,000 Da. […] For C90A mutant, this abundance threshold was lowered to 5% to detect the presence of any reacted protein. 34 adduct is expected to be +486.00 Da after displacement of fluorine.

WT-UCHL1 = biological target: T4, WT-UCHL1 (Homo sapiens, UniProt P09936); assay: Mass spectrometry analysis of 34 adducts on UCHL1; format: binding; conditions: WT-UCHL1 + 34 (1:1)
T4 construct: His (N); made in house
T4 sequence (P09936 1-223): T3 sequence (P09936 1-223 C90A) with A90C
Method: as §1, §2, §3, §4

UCHL1 = biological target: T5, UCHL1 (Homo sapiens, UniProt P09936); assay: SW1271 cell activity-based probe target engagement assay
T5 sequence (P09936 1-223): T3 sequence (P09936 1-223 C90A) with A90C
Method: UCHL1 is a key promoter of cell invasion and metastasis in small cell lung cancer but not necessarily required for cell viability or proliferation. Thus, we chose to assess the efficacy of targeting UCHL1 using the SW1271 small cell lung cancer cell line. […] The Ub-ABP assay was used to confirm on target engagement of UCHL1 within these cells.
[…] Cell pellets were thawed on ice before resuspending in 200 µL lysis buffer (50 mM Tris pH 7.6, 150 mM NaCl, 5 mM MgCl2, 0.5 mM EDTA, 5 mM DTT, 2 mM ATP, 0.5% NP-40, 10% v/v glycerol) and incubating on ice for 30 min with vigorous vortexing every 10 min. Cell lysate was clarified by centrifugation (17,000× g for 10 min) and the supernatant was collected, and the concentration was determined by Bradford (performed according to manufacturer’s protocol). Cells were normalized to 2 mg mL^−1. To each reaction mixture was added 36 µL of lysate and 2 µL of HA-Ub-VME or lysis buffer. This was incubated for 30 min at room temperature before quenching with 15 µL of 4X Laemmli buffer and heating to 95 °C for 5 min. Samples were subjected to SDS-PAGE and immunoblot.

Row | Compound | activity toward UCHL5 (UCHL5) | activity toward UCHL3 (UCHL3) | Adduct(s) Observed (Da) (UCHL1 C90A; UCHL1 C90A + 34 (1:1)) | Adduct(s) Observed (Da) (UCHL1 C90A; UCHL1 C90A + 34 (1:2)) | Adduct(s) Observed (Da) (WT-UCHL1) | selectivity over other DUBs in SW1271 cells (HA blot) (UCHL1; HA immunoblot) | HA-Ub-VME complex formation with UCHL1 in SW1271 cells (UCHL1; dose-response, UCHL1 immunoblot)
1 | COC(=O)CC[C@H](NC(=O)[C@H](C)NC(=O)[C@@H](NC(=O)OCc1ccccc1)C(C)C)C(=O)CF [Cpd 1, benzyloxycarbonyl-Val-Ala-Glu(γ-methoxy)-fluoromethylketone] (Cbz-Val-Ala-Glu(OMe)-CH2F) | not possess any activity | not possess any activity |  |  |  |  | 
2 | C#Cc1ccc(COC(=O)N[C@H](C(=O)N[C@@H](C)C(=O)N[C@@H](CCC(=O)OC)C(=O)CF)C(C)C)cc1 [Cpd 34] |  |  | none | no adducts observed and none | +486.00 Da | demonstrated selectivity over other DUBs | inhibited HA-Ub-VME complex formation with UCHL1 in a dose-dependent manner
